Where two headings read alike, the source gives them in different places.
Experiments:
[1] = test system: Rauscher Leukemia Virus (RLV); experiment: Infectivity of Rauscher Leukemia Virus (RVB3) in mice, spleen weight (Table 4); type: in vivo, Balb/CICR mice; conditions: 2% drug in coating solution, 20 days; for Weight of Spleen: average of 6 animals, infected glove control 1,627; for Weight Increase from Control: infected glove control 1,541
Experimental: In vivo tests were performed using Rauscher Leukemia Virus (RLV), a recognized retrovirus model (see, e.g., Nature 323, 467-469 (1986); Rupecht et al., Proc. Nat'l. Acad. Sci. USA 82, 7733-7737 (1985)) which is used by the FDA in testing drugs for use in treating AIDS. RLV was introduced into Balb/CICR mice in which it infects the spleen. The level of virus infectivity was quantified by determining the weight increase of the mouse spleen after 20 days from infection.
Each treatment was prepared by incubating 1.5 ml Dulbecco's Phosphate Buffered Saline (PBS) for 10 minutes at 37° C. in the finger tip of a latex glove. After incubation, as much as possible of the material was removed from the glove. 0.4 ml of PBS was then introduced into the glove and this was the sample which was introduced into the animals. […] Thus two of the groups only had four animals each that were considered.
[…] Each treatment was prepared by incubating 0.4 ml sterile PBS containing RVB3 (a strain of RLV) for 10 minutes in a glove tip which had previously had one of drugs or straight PBS incubated in it as described above. Three additional controls, a PBS containing glove with no virus, a virus sample not incubated in a glove, and a PBS sample not incubated in a glove were also run.

[2] = test system: ARV-2 strain of AIDS virus; experiment: Infectivity of ARV-2 strain of AIDS virus in H9 cells (Table 2); type: cell-based; conditions: for % Infection: 15 min preincubation, 24 h
Experimental: A stock solution of virus containing 3 to 5×10^4 infectious virus particles/ml was preincubated with the various drugs as indicated in Table 2 for 15 minutes. The virus sample was then diluted 4-fold in order to reduce the concentrations of the drugs below levels toxic to H9 cells (see Example 3 below) and mixed with 250,000 H9 cells in a total volume of 1 ml. After 24 hours, the cells were assayed to determine the percentage of the culture expressing viral antigen. This time interval was selected as it allows for only a single round of viral infection to have occurred such that the number of cells infected was a direct reflection of the number of infectious virions present in the original sample.

[3] = test system: H9 cells; conditions: for % Viab (live cells/live & dead) / Viable Cells/ml: 10 min exposure; for % Viab (live cells/live & dead): after 24 h; for Viable Cells/ml: viability after 24 h
Experimental: The toxicity of the various agents used in the antiviral compositions of the invention to human T4 -lymphocytes (H9 cells and marophages which are the carriers of the AIDS virus) may be relevant to the effectiveness of a drug. This is because killing these cells when present in semen or vaginal fluids may lead to release of virus making it more susceptible to the effects of the drug. With this in mind, the effect of short exposure (10 minutes) of AgSD and other drugs on H9 cells was tested by treating a suspension of H9 cells (1.6×10^6 /ml in HBSS) with […] of each drug or drug combination. After incubating for 10 minutes, the cells were washed twice in thirty volumes of HBSS; resuspended in RPMI 10% FCS+NaPyruvate and plated into 24 well plates at 4×10^5 cells/mi. Cell viability was determined after 24 hours and is reported as numbers of viable cells per ml and viable percentage (live cells/live cells+dead cells) in Table 3A.

[4] = test system: Candida albicans; experiment: Rate of killing of Candida albicans on short exposure (Table 5A); type: cell-based; conditions: 10 minute incubation, control >50,000
Experimental: 3 ml of Saboraud broth containing 10^5 organism of Candida albicans
were incubated with the above drug. Aliquots were removed at 5 and 10
minute and were subcultured.

[5] = test system: Gonococcus; experiment: Killing of Gonococcus (Table 6); type: cell-based; conditions: for Colony Counts in Culture: control >50,000
Experimental: Drugs were suspended in 5 ml of cultures containing […] of
gonoccccus and incubated. Aliquots were removed at 5 and 10 minute
intervals and subcultured for colony counts.

[6] = test system: HSV; experiment: Toxicity of drugs for HSV, titer on vero cells (Table 7A); type: cell-based; conditions: 200 μl of 500 μg/ml stock added to 1 ml virus, 20 min at R.T.; for Titer: read after 48 hours
Experimental: One ml HSV at 3 × 10^6/ml was incubated with 200 μliters of
drugs each 500 μg/ml stock solution. After 20 minutes at
R.T., the virus was titered on monolayers of vero cells,
incubatwd for 2 hours, then overlayed with methyl cellulose.
Virus titers were read after 48 hours. No drug toxicity* was […]

[7] = test system: Candida albicans; experiment: Antifungal efficacy of drug coated gloves against Candida albicans (Table 5B); type: cell-based; conditions: treated glove
Experimental: Treated glove fingers were draped over the top of culture
tubes with the treated side foring the inside of the cup
shape. Then 3.0 ml of TSB contining 10^3 organisms of Candida
albicans was dispensed in each finger and all placed in the
water bath shaker at 37° C. Samples were removed at 15
minutes, 1 hour, 2 hours, and 4 hours. They were diluted 1-
10 and plated on blood agar in 2.0 ml amounts.

[8] = test system: Staph. aureus; experiment: Antibacterial efficacy of drug coated gloves against Staph. aureus (Table 9); type: cell-based; conditions: 1% in coating solution
Experimental: The fingers of latex gloves were washed and dried. They were then sprayed with a fine mist spray of a coating solution to provide a uniform coating of solution on the glove surface, sufficient to provide complete wetting thereof without runoff. The coating solutions were prepared by dissolving 1% Silicate®Medical Adhesive Type A and 1% of the silicone MDX4-4159 in ethyl acetate, followed by dissolving and dispersing the chlorhexidine acetate and silver sulfadiazine, respectively, therein. The coating was air dried for 24 hours and the gloves tested using the following test:
Treated glove fingers were draped over the tops of culture tubes with the treated side with sprayed on coating forming the inside of the cup shape. Then 3.0 ml of TSB containing 10^4 colony forming units of Staph. aureus was dispensed in each finger and all placed in a water bath shaker at 37° C. Samples were removed at 15 minutes, 1 hour, 2 hours, and 4 hours, diluted 1-10, and the solution plated on blood agar in 2.0 ml amounts.

[9] = test system: HIV-I; conditions: 10 minutes exposure; HIBICLENS or HIBISTAT dilutions; C3-44 cells; cited from earlier work
[10] = test system: macrophages; experiment: Rate of killing of macrophage by drugs, trypan-blue (Table 3B); type: cell-based, mouse; conditions: 100 μg; 20 min incubation; control 36% kill
Experimental: In the experiment, peritonial normal mouse macrophages were enriched by attaching to petri dishes and adjusted to a cell concentration of 5 to 10×10^6 /ml. 0.1 ml aliquots of this suspension were plated in microtiter plates and 10μ and 5μ of each of four samples was added. The control plate received PBS only. After 20 minutes of incubation in a […], the cells were tested for viability using tryphan-blue dye.

[11] = test system: Staph. aureus; experiment: Antibacterial efficacy of coated I.V. catheters, Bioassay A (Table 8); type: cell-based; conditions: Polyurethane I.V. catheter, silicone matrix coating; 10^4 CFU Staph. aureus
Excerpt: The coatings were applied by dipping and then drying.
Staph. aureus is used to challenge the I.V. catheter.

Molecule: CC(=O)O[C@H]1C[C@@]2(C)[C@@H](C[C@@H](O)[C@H]3[C@@]4(C)CC[C@@H](O)[C@@H](C)[C@@H]4CC[C@@]32C)/C1=C(\CCC=C(C)C)C(=O)O [Fusidic acid]
- Weight of Spleen [1]: 107 mg
- Weight Increase from Control [1]: 21 mg

Molecule: C[C@H](CCC(=O)O)[C@H]1CC[C@H]2[C@@H]3CC[C@@H]4C[C@H](O)CC[C@]4(C)[C@H]3C[C@H](O)[C@]12C [NaDC, sodium deoxycholate]
- % infection versus control at 10 µg/mL ([2]; H9, 24 h, read-out: % Infection v. Control): 108%
- % Infection ([2]; drug during incubation 40 μg/ml, final 10.0 μg/ml): 3.35%
- % Viab (live cells/live & dead) ([3]; 50 (ml/ml as printed in text)): 73%
- Viable Cells/ml ([3]; 50 (ml/ml as printed in text)): 1.2 × 10^6 Cells/ml
- % Viab (live cells/live & dead) ([3]; 100 (ml/ml as printed in text)): 44%
- Viable Cells/ml ([3]; 100 (ml/ml as printed in text)): 2.0 × 10^6 Cells/ml
- Weight of Spleen [1]: 109 mg
- Weight Increase from Control [1]: 23 mg
- Colony Counts in Culture ([4]; concentration 1,000 (unit not given)): 8,000
- Colony Counts in Culture ([5]; 1,000 μg/ml, 5 Minutes): 12,000
- Colony Counts in Culture ([5]; 1,000 μg/ml, 10 Minutes): 4,000
- % Inhibition [6]: 0%
- Titer [6]: 3.2 × 10^6

Molecule: [H]/N=C(\N/C(=N/[H])NCCCCCCNC(=N)NC(=N)Nc1ccc(Cl)cc1)Nc1ccc(Cl)cc1 [Chlorhexidine, chlorhexidine]
- viral infectivity ([2]; 10 μg/ml): did not itself reduce viral infectivity
- effectiveness for reducing infectivity of AIDS virus ([2]; low concentrations, combination compared with AgSD alone): no effect on infectivity of AIDS virus
- Weight of Spleen [1]: 234 mg
- Weight Increase from Control [1]: 148 mg
- Colony Counts in Culture ([4]; concentration 100 (unit not given)): 30
- Colony Counts in Culture ([7]; 1 Hour, control 2,000): 0
- Colony Counts in Culture ([7]; 2 Hours, control 4,000): 0
- Colony Counts in Culture ([7]; 4 Hours, control 6,000): 0
- Colony Counts in Culture ([7]; 15 Minutes, control 1,400): 75
- Colony Counts in Culture ([5]; 100 μg/ml, 5 Minutes): 2,000
- Colony Counts in Culture ([5]; 100 μg/ml, 10 Minutes): 10
- % Inhibition [6]: 0%
- Titer [6]: 2.7 × 10^6
- Colony Counts in Culture ([8]; 15 min., control 12,000): 100
- Colony Counts in Culture ([8]; 1 hour, control 15,000): 0
- Colony Counts in Culture ([8]; 2 hours, control 20,000): 0
- Colony Counts in Culture ([8]; 4 hours, control 50,000): 0

Molecule: nonoxynol
- Colony Counts in Culture ([4]; 0.2%): > 50,000
- Colony Counts in Culture ([5]; 0.1%, 5 Minutes): 40
- Colony Counts in Culture ([5]; 0.1%, 10 Minutes): 70
- effectiveness against gonococcus ([5]; general statement): effective against gonococcus

Molecule: N=C(NCCCCCCNC(=N)NC(=N)Nc1ccc(Cl)cc1)NC(=N)Nc1ccc(Cl)cc1.O=C(O)[C@H](O)[C@@H](O)[C@H](O)[C@H](O)CO.O=C(O)[C@H](O)[C@@H](O)[C@H](O)[C@H](O)CO [chlorohexidine gluconate]
- concentration not effective to prevent HIV-I infection [9]: ≤ 0.01%

Molecule: [H]/N=C(\N/C(=N/[H])NCCCCCCNC(=N)NC(=N)Nc1ccc(Cl)cc1)Nc1ccc(Cl)cc1 [CHA, chlorhexidine acetate]
- % infection versus control at 2.5 µg/mL ([2]; H9, 24 h, drug during incubation 10 μg/ml, final 2.5 μg/ml, read-out: % Infection v. Control): 108%
- % Infection ([2]; drug during incubation 10 μg/ml, final 2.5 μg/ml): 3.35%
- condition of cells [3]: Cells in terrible condition.
- % Viab (live cells/live & dead) ([3]; 50 (ml/ml as printed in text)): 73%
- % Viab (live cells/live & dead) ([3]; 100 (ml/ml as printed in text)): 20%
- % Kill [10]: 100%
- Days of Activity [11]: 2 days

Molecule: benzalkonium chloride
- % Inhibition [6]: 98%
- Titer [6]: 5.2 × 10^4

From patent US5334588A, “Composition for inhibiting transmission of hepatitis B virus” (priority 1991, dated 1994)
